Reference: patent publication US7579016B2, “Methods for repelling arthropods using isolongifolenone analogs” (The United States of America as represented by the …, priority 2007, dated 2009)

Assays:
[1] = system: Aedes aegypti; experiment: in vitro K&D module mosquito biting-deterrent bioassay; type: in vivo; conditions: for proportion of mosquitoes not biting (biting deterrence): 3-minute exposure, 200 females, FIG. 2; for proportion of mosquitoes deterred, dose-response assay: FIG. 3
From the text: (§1) Mosquito Bioassay: Yellowfever mosquito, Aedes aegypti (red eye Liverpool strain) and malarial vector mosquito, Anopheles stephensi used in the study were from colonies maintained at the Walter Reed Army Institute of Research, Department of Entomology, Silver Spring, Md. The mosquitoes were reared using the procedure of Gerberg et al. (Gerberg, E. J., et al., Manual for mosquito rearing and experimental techniques, 1994, AMCA Inc., Lake Charles, La.). Larvae were fed ground tropical fish flakes (Tetramin Tropical Fish Flakes, Tetra Sales, Blacksburg, Va., wwv.tetra-fish.com). Colonies were maintained in a photoperiod of 12:12 h (L:D with lights on at 0600 h) at 27° C. and 80% RH. Adult mosquitoes were supplied with cotton pads moistened with 10% aqueous sucrose solution.
(§2) The comparative mosquito biting-deterrent activity of isolongifolenone and Deet was evaluated using the mosquitoes A. degypti and An. stephensi. Isolongifolenone was synthesized as described earlier. The well known and widely used synthetic repellent chemical Deet (McCabe, E. T., et al., J. Org. Chem., 19: 493-498 (1954)) was purchased from Morflex, Inc., Greensboro, N.C. Deet is often considered to be the best mosquito repellent ever developed (Elston, D. M., J. Am. Acad. Dermatol., 36: 644-645 (1998)) and is used as a gold standard to which new candidate repellents are compared. A comparative bioassay of the two compounds was conducted by using the in vitro K&D module bioassay system (Klun et al., 2005). The K&D in vitro assay system consists of three components: (1) A Plexiglas™ 29.7 cm×7.1 cm K&D module composed of six adjacent cells each designed to hold mosquitoes and each having a rectangular 3×4 cm floor hole that opened and closed by a sliding door. (2) A Plexiglas™ six-well 29.7 cm×7.1 cm water water-bath warmed (38° C.) reservoir with six 3×4 cm wells designed to match the sliding-door openings of the K&D module base and to contain 6 mL warmed human red blood cells. The wells were covered with a collagen membrane (the blood cell-membrane unit simulated a human host for mosquito feeding). (3) A 29.7×7.1 cm×0.4 cm Teflon® separator having six rectangular openings like the K&D module. In the study, test compounds in 95% ethanol solution were applied to 3×4 cm cloth areas marked with ink pen on a 29.7-cm×7.1 cm strip of organdy cloth. We routinely applied ethanol solutions (115 μL) 0.5 cm outside of the 3×4 marked cloth areas to ensure that mosquitoes were never exposed to any area of untreated cloth. […] The Teflon® separator was placed over the treated cloth. The function of the separator was to prevent direct contact of the K&D module with chemically treated cloth. A bioassay replicate consisted of three treatments: isolongifolenone, Deet, and 95% ethanol treated cloth as control. We used two replicates with treatments randomly positioned over the six-cells of a reservoir.
(§3) The mosquito bioassays were conducted With the in vitro K&D module systems positioned in a Purair ductless chemical fume hood (Air Science USA, LLC, Fort Myers, Fla.) from 1300-1600 h over days at 24°-26° C. and 24-51%, RH in ambient laboratory light. Mated nulliparous A. aegypti and A. stephensi (5-15 d old) were tested, and they had no water 24 h before testing. Mosquitoes were loaded into each of six adjacent K&D module cells and promptly after loading they were exposed to 2 replicates of the three treatments on the organdy cloth. Routinely, a six-celled K&D module containing five mosquitoes/cell was positioned on the Teflon® separator over air-dried cloth treatments covering the blood-membrane wells, and trap doors of the K&D modules were opened to expose-the treatments to the sets of mosquitoes. After a 3-minute exposure, the number of mosquitoes biting through cloth treatments in each cell was recorded and mosquitoes were prodded back into the cells. […]

[2] = system: Anopheles stephensi; experiment: as above; type: in vivo; conditions: 25 nmol/cm^2 cloth; 3-minute exposure; 200 females; FIG. 2
From the text: as §1, §2, §3

[3] = system: Amblyomma americanum nymphs; experiment: fingertip tick repellency bioassay (treated cloth strip around finger); type: in vivo; conditions: A. americanum nymphs; 155 nmol/cm^2 cloth; 10 min after release on finger
From the text: (§4) Tick Bioassay: Blacklegged tick (Ixodes scapularis) nymphs were reared from larvae obtained from the laboratory colony at Oklahoma State University, Stillwater, Okla., and fed on rats (Beltsville Area Animal Care and Use Committee Protocol #05-0122) at the U.S. Department of Agriculture (USDA), Agricultural Research Service (ARS), Beltsville Agricultural Research Center, Beltsville, Md. Lone star tick (Amblyomma americanum) nymphs were obtained from a colony at the USDA, ARS, Knipling-Bushland U.S. Livestock Insects Research Laboratory, Kerrville, Tex. Both species of ticks were maintained at 24° C.; ˜97% RH and 16:8 h LD until testing.
(§5) The fingertip bioassay used by Schreck et al. (Schreck, C. E., et al., J. Am. Mosq. Control Assoc., 11: 136-140 (1995)) was modified (Carroll, J. F., et al., Exp. Appl. Acarol., 41: 215-224 (2007); Carroll, J. F., et al., Med. Vet. Entomol., 19:101-106 (2005)) by applying treatments to the outer layer of a strip of cloth (organdy) later doubly wrapped around the middle phalanx of an index finger. A 7×7 […] strip of organdy cloth (G Street Fabrics, Rockville, Md.) was cut in the shape of a hockey stick (9 cm long section, 4.5 cm short section, 4-4.5 cm wide) so that when the cloth was wrapped twice around the middle phalanx of the index finger it completely covered the area between the deepest creases of the distal and middle joints of the finger of a volunteer subject. The cloth extended 5-6 mm proximally beyond the deepest crease of the middles joint and overlapped 1-3 mm. With the strip of cloth in place, the boundaries of the area to receive the repellent treatment area (between the deepest creases of the distal and middle joints) were marked on the cloth with a lead pencil. This cloth was used as a template for tracing the boundaries on other cloths.
(§6) Stoichiometrically equivalent stock 95% ethanol solutions of the compounds were prepared: 50 nmol Deet/μL and 50 nmol isolongifolenone or isolongifolenone analog/μL for use in all bioassays. The volumes of the respective solutions used to generate 155 nmole repellent doses/cm^2 cloth were based on the dimensions of the middle phalanx of the left index finger of a volunteer subject. The volume of the treated solutions required to give the desired nmoles/cm^2 cloth dosages was calculated from the average of the circumferences of the two finger joints multiplied by the distance between the deepest crease of each joint.
(§7) A repellent solution (52 μL) or ethanol (control) of the same volume was applied to the designated treatment area on the cloth and allowed to dry. As with Schreck et al. (1995), it was necessary to screen I. scapularis nymphs for active individuals. While the treated cloth dried, I. scapularis nymphs were transferred by forceps from a holding vial to a finger. Ten ticks that crawled ≧5 mm were sequestered in a Petri dish that had been glued inside a larger Petri dish with water added to the space between their sides to form a moat. After the cloth dried (10-12 min), it was wrapped twice around the index finger. To keep the cloth wrapped around the finger, three small dabs of beeswax were smeared on the upper surface of the inner layer of cloth at the edge of the overlap and pressure applied for 10 s. Using forceps, the 10 selected ticks were placed on the tip of the horizontally held finger between the nail and the edge of the cloth. When the tenth tick was placed on the finger, the finger was slowly tipped vertically with the tip downward. The locations of the ticks were recorded at 1, 3, 5, 10 and 15 min after their release on the finger. […] For both species, the finger was held over moated Petri dishes while ≧1 tick was on it. During bioassays temperatures ranged from 23°-26° C. and 10-56% RH. The repellent data were compared by paired samples t-test (SPSS 10.0 for Windows for significance at α=0.05 level, George, D., and P. Mallery, SPSS for Windows step by step: A simple guide and reference, 4th ed., 2002, Allyn & Bacon, Boston, Mass.). […]

[4] = system: Ixodes scapularis nymphs; experiment: as above; type: in vivo; conditions: for I. scapularis nymphs repelled: FIG. 4
From the text: as §4, §5, §6, §7

[5] = system: mosquito; conditions: 25 nmol compound/cm^2, applied to human skin or cloth; cited from earlier work

SMILES	proportion of mosquitoes not biting (biting deterrence) ([1]; 25 nmol/cm^2 cloth)	proportion of mosquitoes deterred, dose-response assay ([1]; 25 nmole compound/cm^2 cloth)	proportion of mosquitoes deterred, dose-response assay ([1]; 36 nmole compound/cm^2 cloth)	proportion of mosquitoes not biting (biting deterrence) [2]	Proportion Repelled [3]	I. scapularis nymphs repelled ([4]; 19.5 nmole/cm^2 cloth)	I. scapularis nymphs repelled ([4]; 39 nmole/cm^2 cloth)	I. scapularis nymphs repelled ([4]; 78 nmole/cm^2 cloth)	Proportion Repelled ([4]; I. scapularis nymphs, 155 nmol/cm^2 cloth, 10 min after release on finger)	proportion of mosquitoes not biting (analog comparison) ([1]; 25 nmol/cm^2 cloth, 100 mosquitoes per compound, FIG. 6)	suppression of mosquito biting compared to controls [5]
CC1(C)C2=CC(=O)CC(C)(C)[C@]23CC[C@H]1C3 [Isolongifolenone, (−)-isolongifolenone]	more effectively than Deet	significantly greater than the proportions deterred by Deet	significantly greater than the proportions deterred by Deet	more effectively than Deet	0.725	35%	65%	100%	1.0	–	–
CCN(CC)C(=O)c1cccc(C)c1 [Deet, N,N-Diethyltoluamide, reference compound]	significantly greater	–	–	significantly greater	–	15%	55%	100%	–	significantly greater	ca. 80%
